Assay results from patent publication US20130217664A1, “NOVEL COMPOUNDS USEFUL FOR THE TREATMENT OF DEGENERATIVE AND INFLAMMATORY DISEASES” (priority 2012, published 2013).

How the values were obtained:
[1] = molecular target: T1, human JAK1 (Homo sapiens, UniProt P23458); assay: JAK1 inhibition assay (polyGT substrate / Ulight-JAK1 peptide); format: biochemical; details: recombinant human JAK1 catalytic domain; polyGT or Ulight-JAK1 peptide assay
T1 construct: catalytic domain, amino acids 866-1154; catalog number PV4774; purchased Invitrogen PV4774
In short: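 Signal scaled between vehicle and 10 μM staurosporine. Radiometric polyGT reactions ran 45 min at 30 °C, counted after phosphoric-acid stop. Ulight peptide reactions ran 60 min at room temperature, fluorescence read after adding Eu-PT66 detection mix with EDTA.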

[2] = molecular target: T2, human JAK2 (Homo sapiens, UniProt O60674); assay: JAK2 inhibition assay (polyGT substrate / Ulight-JAK1 peptide); format: biochemical; details: recombinant human JAK2 catalytic domain; polyGT or Ulight-JAK1 peptide assay
T2 construct: catalytic domain (amino acids 808-1132; catalog number PV4210); GST; purchased Invitrogen PV4210
Procedure: 1.2 JAK2 Inhibition Assay
1.2.1 JAK2 Assay polyGT Substrate
0.025 mU of JAK2 is incubated with 2.5 μg polyGT substrate (Sigma catalog number P0275) in kinase reaction buffer (5 mM MOPS pH 7.5, 9 mM MgAc, 0.3 mM EDTA, 0.06% Brij and 0.6 mM DTT, 1 μM non-radioactive ATP, 0.25 μCi ^33P-gamma-ATP (GE Healthcare, catalog number AH9968) final concentrations) with or without 5 μL containing test compound or vehicle (DMSO, 1% final concentration), in a total volume of 25 μL, in a polypropylene 96-well plate (Greiner, V-bottom). After 90 min at 30° C., reactions are stopped by adding of 25 μL/well of 150 mM phosphoric acid. […] Plates are washed 6 times with 300 μL per well of a 75 mM phosphoric acid solution and the bottom of the plates is sealed. 40 μL/well of Microscint-20 is added, the top of the plates is sealed and readout is performed using the Topcount (Perkin Elmer). Kinase activity is calculated by subtracting counts per min (cpm) obtained in the presence of a positive control inhibitor (10 μM staurosporine) from cpm obtained in the presence of vehicle. The ability of a test compound to inhibit this activity is determined as:
Percentage inhibition=((cpm determined for sample with test compound present−cpm determined for sample with positive control inhibitor)divided by(cpm determined in the presence of vehicle−cpm determined for sample with positive control inhibitor))*100.
Dose dilution series are prepared for the compounds enabling the testing of dose-response effects in the JAK2 assay and the calculation of the IC50 for each compound.
1.2.2 JAK2 Ulight-JAK1 Peptide Assay
After 60 min at room temperature, reactions were stopped by adding 20 μL/well of detection mixture (1× detection buffer (Perkin Elmer, catalog number CR97-100C), 0.5 nM Europium-anti-phosphotyrosine (PT66) (Perkin Elmer, catalog number AD0068), 10 mM EDTA). […] Kinase activity was calculated by subtracting relative fluorescence units (RFU) obtained in the presence of a positive control inhibitor (10 μM staurosporine) from RFU obtained in the presence of vehicle. The ability of a test compound to inhibit this activity was determined as:
Percentage inhibition=((RFU determined for sample with test compound present−RFU determined for sample with positive control inhibitor)divided by(RFU determined in the presence of vehicle−RFU determined for sample with positive control inhibitor))*100.
Dose dilution series are prepared for compound enabling the testing of dose-response effects in the JAK2 assay and the calculation of the IC50 for the compound. Each compound is routinely tested at concentration of 20 μM followed by a 1/5 serial dilution, 10 points in a final concentration of 1% DMSO. […] The data are expressed as the average IC50 from the assays±standard error of the mean.

T1 sequence (P23458 866-1154): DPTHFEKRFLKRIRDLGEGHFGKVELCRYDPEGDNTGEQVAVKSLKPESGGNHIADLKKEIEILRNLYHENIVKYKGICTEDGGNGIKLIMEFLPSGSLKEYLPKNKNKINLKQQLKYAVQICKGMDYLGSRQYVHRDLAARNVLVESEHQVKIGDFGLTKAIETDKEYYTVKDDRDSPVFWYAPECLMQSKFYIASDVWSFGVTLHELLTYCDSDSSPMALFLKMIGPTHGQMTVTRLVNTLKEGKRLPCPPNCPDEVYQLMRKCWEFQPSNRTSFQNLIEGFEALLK
T2 sequence (O60674 808-1132): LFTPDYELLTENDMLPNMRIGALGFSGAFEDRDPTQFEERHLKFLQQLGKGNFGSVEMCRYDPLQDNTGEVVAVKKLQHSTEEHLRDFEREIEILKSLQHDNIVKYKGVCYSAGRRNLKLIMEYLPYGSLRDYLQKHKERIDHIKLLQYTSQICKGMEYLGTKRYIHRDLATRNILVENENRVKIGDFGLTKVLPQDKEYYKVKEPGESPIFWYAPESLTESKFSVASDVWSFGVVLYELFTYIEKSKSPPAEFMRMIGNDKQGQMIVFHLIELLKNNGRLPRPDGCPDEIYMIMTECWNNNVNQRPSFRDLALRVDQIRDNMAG

IC50 [1] [µM] | IC50 [2] [µM] | SMILES
0.501 to 1 | > 1 | CN(c1cc2c(cn1)ncn2C)c1ccccc1OC(F)(F)F [Compound 49, N,1-dimethyl-N-(2-(trifluoromethoxy)phenyl)-1H-imidazo[4,5-c]pyridin-6-amine]
> 1 | > 1 | CCN(c1cccc(C(=O)c2ccccc2)c1)c1cc2c(cn1)ncn2C [Compound 9, (3-(ethyl(1-methyl-1H-imidazo[4,5-c]pyridin-6-yl)amino)phenyl)(phenyl) methanone]
0.101 to 0.5 | > 1 | CN(c1ccc(OCCO)cc1)c1cc2c(cn1)ncn2C [Compound 19, 2-(4-(methyl(1-methyl-1H-imidazo[4,5-c]pyridin-6-yl)amino)phenoxy)ethanol]
> 1 | > 1 | Cc1c(OCCN2CCCC2)cccc1N(C)c1cc2c(cn1)ncn2C [Compound 77, N,1-dimethyl-N-(2-methyl-3-(2-(pyrrolidin-1-yl)ethoxy)phenyl)-1H-imidazo[4,5-c]pyridin-6-amine]
> 1 | > 1 | CCc1ncccc1N(C)c1cc2c(cn1)ncn2C [Compound 79, N-(2-ethylpyridin-3-yl)-N,1-dimethyl-1H-imidazo[4,5-c]pyridin-6-amine]
> 1 | > 1 | Cc1c(O)cccc1N(C)c1cc2c(cn1)ncn2C [Compound 46, 2-methyl-3-(methyl(1-methyl-1H-imidazo[4,5-c]pyridin-6-yl)amino)phenol]
0.101 to 0.5 | > 1 | CN(c1ccc(OCC2CC2)cc1)c1cc2c(cn1)ncn2C [Compound 24, N-(4-(cyclopropylmethoxy)phen-yl)-N,1-dimethyl-1H-imidazo[4,5-c]pyridin-6-amine]
0.101 to 0.5 | > 1 | CCc1cc(C(=O)NCCc2ccccc2)ccc1N(C)c1cc2c(cn1)ncn2C [Compound 99, 3-ethyl-4-(methyl(1-methyl-1H-imidazo[4,5-c]pyridin-6-yl)amino)-N-phenethylbenzamide]
> 1 | > 1 | CCN(c1ccc2ocnc2c1)c1cc2c(cn1)ncn2C [Compound 3, N-ethyl-N-(1-methyl-1H-imidazo[4,5-c]pyridin-6-yl)benzo[d]oxazol-5-amine]
0.501 to 1 | > 1 | CCc1ccccc1Oc1cc2c(cn1)ncn2C [Compound 298, 6-(2-Ethyl-phenoxy)-1-methyl-1H-imidazo[4,5-c]pyridine]
0.501 to 1 | > 1 | CCN(c1cccc(C(O)c2ccccc2)c1)c1cc2c(cn1)ncn2C (centres unmarked) [Compound 12, (3-(ethyl(1-methyl-1H-imidazo[4,5-c]pyridin-6-yl)amino)phenyl)(phenyl) MeOH]
> 1 | > 1 | Cc1ccc(OCCN2CCCC2)cc1N(C)c1cc2c(cn1)ncn2C [Compound 58, N,1-dimethyl-N-(2-methyl-5-(2-(pyrrolidin-1-yl)ethoxy)phenyl)-1H-imidazo[4,5-c]pyridin-6-amine]
> 1 | 0.101 to 0.5 | CCN(c1ccc2c(ccn2C)c1)c1cc2c(cn1)ncn2C [Compound 8, N-ethyl-1-methyl-N-(1-methyl-1H-indol-5-yl)-1H-imidazo[4,5-c]pyridin-6-amine]
0.101 to 0.5 | > 1 | Cc1c(OCc2ccc(C#N)nc2)cccc1N(C)c1cc2c(cn1)ncn2C [Compound 97, 5-((2-methyl-3-(methyl(1-methyl-1H-imidazo[4,5-c]pyridin-6-yl)amino)phenoxy)methyl) picolinonitrile]
0.501 to 1 | > 1 | COc1ccc(Cc2ccc(N(C)c3cc4c(cn3)ncn4C)c(C)c2)cc1 [Compound 74, N-(4-(4-methoxybenzyl)-2-methylphenyl)-N,1-dimethyl-1H-imidazo[4,5-c]pyridin-6-amine]
0.101 to 0.5 | 0.501 to 1 | CCCOc1ccc(N(C)c2cc3c(cn2)ncn3C)cc1 [Compound 22, N,1-dimethyl-N-(4-propoxyphenyl)-1H-imidazo[4,5-c]pyridin-6-amine]

IC50 [1] [µM] | IC50 [2] [µM] | SMILES
0.501 to 1 | > 1 | CN(c1ccc(OCC2CCCO2)cc1)c1cc2c(cn1)ncn2C (centres unmarked) [Compound 18, N,1-dimethyl-N-(4-((tetrahydrofuran-2-yl)methoxy)phenyl)-1H-imidazo[4,5-c]pyridin-6-amine]
0.501 to 1 | 0.501 to 1 | Cc1c(OCc2ccccc2)cccc1N(C)c1cc2c(cn1)ncn2C [Compound 75, N-(3-(benzyloxy)-2-methylphenyl)-N,1-dimethyl-1H-imidazo[4,5-c]pyridin-6-amine]
0.501 to 1 | > 1 | CCOCCOc1ccc(N(C)c2cc3c(cn2)ncn3C)cc1 [Compound 23, N-(4-(2-ethoxyethoxy)phenyl)-N,1-dimethyl-1H-imidazo[4,5-c]pyridin-6-amine]
0.101 to 0.5 | > 1 | CCc1ccc(C(=O)NC)cc1N(C)c1cc2c(cn1)ncn2C [Compound 128, 4-ethyl-N-methyl-3-(methyl(1-methyl-1H-imidazo[4,5-c]pyridin-6-yl)amino)benzamide]
0.101 to 0.5 | > 1 | CCc1ccc(C(=O)N(C)C)cc1N(C)c1cc2c(cn1)ncn2C [Compound 87, 4-Ethyl-N,N-dimethyl-3-(methyl(1-methyl-1H-imidazo[4,5-c]pyridin-6-yl)amino)benzamide]
0.101 to 0.5 | > 1 | Cc1ccc(OCC(=O)N(C)C)cc1N(C)c1cc2c(cn1)ncn2C [Compound 59, N,N-dimethyl-2-(4-methyl-3-(methyl(1-methyl-1H-imidazo[4,5-c]pyridin-6-yl)amino)phenoxy)acetamide]
0.101 to 0.5 | > 1 | CCc1ccc(C(=O)NCc2ccccn2)cc1N(C)c1cc2c(cn1)ncn2C [Compound 125, 4-ethyl-3-(methyl(1-methyl-1H-imidazo[4,5-c]pyridin-6-yl)amino)-N-(pyridin-2-ylmethyl)benzamide]
0.501 to 1 | > 1 | Cc1cc(OCCN2CCCC2)ccc1N(C)c1cc2c(cn1)ncn2C [Compound 52, N,1-dimethyl-N-(2-methyl-4-(2-(pyrrolidin-1-yl)ethoxy)phenyl)-1H-imidazo[4,5-c]pyridin-6-amine]
0.101 to 0.5 | > 1 | Cc1c(OCCCC#N)cccc1N(C)c1cc2c(cn1)ncn2C [Compound 66, 4-(2-methyl-3-(methyl(1-methyl-1H-imidazo[4,5-c]pyridin-6-yl)amino)phenoxy)butane nitrile]
0.101 to 0.5 | > 1 | CCc1ccc(COC)cc1N(C)c1cc2c(cn1)ncn2C [Compound 122, N-(2-Ethyl-5-(methoxymethyl)phenyl)-N,1-dimethyl-1H-imidazo[4,5-c]pyridin-6-amine]
0.101 to 0.5 | > 1 | CCc1ccc(C(=O)Nc2cccnc2)cc1N(C)c1cc2c(cn1)ncn2C [Compound 124, 4-ethyl-3-(methyl(1-methyl-1H-imidazo[4,5-c]pyridin-6-yl)amino)-N-(pyridin-3-yl)benzamide]
> 1 | > 1 | COc1ccc(Cc2cc3c(cn2)ncn3C)cc1 [Compound 275, 6-(4-methoxybenzyl)-1-methyl-1H-imidazo[4,5-c]pyridine]
0.101 to 0.5 | > 1 | CCc1cc(C(=O)N2CCOCC2)ccc1N(C)c1cc2c(cn1)ncn2C [Compound 117, (3-ethyl-4-(methyl(1-methyl-1H-imidazo[4,5-c]pyridin-6-yl)amino)phenyl)(morpho-lino)methanone]
0.101 to 0.5 | > 1 | COc1ccc(N(C)c2cc3c(cn2)ncn3C)c(C)c1 [Compound 45, N-(4-Methoxy-2-methylphenyl)-N,1-dimethyl-1H-imidazo[4,5-c]pyridin-6-amine]
> 1 | > 1 | Cc1noc(C)c1COc1ccc(N(C)c2cc3c(cn2)ncn3C)cc1 [Compound 20, N-(4-((3,5-dimethylisoxazol-4-yl)methoxy)phenyl)-N,1-dimethyl-1H-imidazo[4,5-c]pyridin-6-amine]
